Data as given in patent US11845727B2, “Aldehyde and ketone derivatives of psilocybin and methods of using” (Enveric B[…] Inc., priority 2020, dated 2023).

Columns and labels:
5-HT1A receptor = biological target: T1, 5-HT1A receptor (Homo sapiens, UniProt P08908); test: cAMP-Glo assay with fixed forskolin in +5-HT1A cells (CHO-K1/5-HT1A/Gα15); assay type: cell-based; conditions: fixed (4 μM) forskolin; for luminescence as dosages of ligand decrease: +5HT1A cell culture, reduced luminescence = increased cAMP; for 5-HT1A receptor modulation (conclusion from cAMP/luminescence trend) / % cAMP levels as dosages of compound decrease: +5HT1A cell cultures
T1 construct: host or cells: CHO-K1 (co-expressing Gα15)
T1 sequence (P08908 1-422): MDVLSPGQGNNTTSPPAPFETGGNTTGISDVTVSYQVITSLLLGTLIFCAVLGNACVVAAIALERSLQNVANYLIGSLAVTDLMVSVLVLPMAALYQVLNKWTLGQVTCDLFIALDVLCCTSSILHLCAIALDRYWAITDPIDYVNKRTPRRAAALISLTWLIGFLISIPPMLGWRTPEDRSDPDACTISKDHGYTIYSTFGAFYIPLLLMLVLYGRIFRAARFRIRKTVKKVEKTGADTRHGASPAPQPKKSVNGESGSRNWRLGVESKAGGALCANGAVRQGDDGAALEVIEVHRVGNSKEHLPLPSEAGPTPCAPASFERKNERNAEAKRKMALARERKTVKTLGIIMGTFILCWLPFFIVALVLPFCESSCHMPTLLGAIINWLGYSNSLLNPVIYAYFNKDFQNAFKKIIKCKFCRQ
Source text: (§1) CHO-K1/Gα15 (GenScript, M00257) (−5-HT1A) and CHO-K1/5-HT1A/Gα15 (GenScript, M00330) (+5-HT1A) cells lines were used. Briefly, CHO-K1/Gα15 is a control cell line that constitutively expresses Gα15 which is a promiscuous Gq protein. This control cell line lacks any transgene encoding 5-HT1A receptors, but still responds to forskolin; thus, cAMP response to forskolin should be the same regardless of whether or not 5-HT1A agonists are present. Conversely, CHO-K1/5-HT1A/Gα15 cells stably express 5-HT1A receptor in the CHO-K1 host background. […] In +5-HT1A cells, Gα15 may be recruited in place of Gαi/o, which could theoretically dampen cAMP response (Rojas and Fiedler 2016, Front Cell Neurosci 10: 272). […] In contrast, tryptophan is not known to activate, or modulate in any way, 5-HT1A receptors, and was thus used as a negative control. Cells were maintained in complete growth media as recommended by supplier (GenScript) which is constituted as follows: Ham's F12 Nutrient mix (HAM's F12, GIBCO #11765-047) with 10% fetal bovine serum (FBS) (Thermo Scientific #12483020), 200 μg/ml zeocin (Thermo Scientific #R25005) and/or 100 μg/ml hygromycin (Thermo Scientific #10687010). The cells were cultured in a humidified incubator with 37° C. and 5% CO2. Cells maintenance was carried out as recommended by the cell supplier. Briefly, vials with cells were removed from the liquid nitrogen and thawed quickly in 37° C. water bath. Just before the cells were completely thawed the vial's outside was decontaminated by 70% ethanol spray. The cell suspension was then retrieved from the vial and added to warm (37° C.) complete growth media, and centrifuged at 1,000 rpm for 5 minutes. The supernatant was discarded, and the cell pellet was then resuspended in another 10 ml of complete growth media, and added to the 10 cm cell culture dish (Greiner Bio-One #664160). The media was changed every third day until the cells were about 90% confluent. The ˜90% confluent cells were then split 10:1 for maintenance or used for experiment.
As 5-HT1A activation inhibits cAMP formation, the ability of test molecules to modulate the 5-HT1A receptor response was measured via changes in the levels of cAMP produced due to application of 4 μM forskolin. The change in intracellular cAMP levels due to the treatment of novel molecules was measured using cAMP-Glo Assay kit (Promega # V1501). Briefly, +5-HT1A cells were seeded on 1-6 columns and base −5-HT1A cells were seeded on columns 7-12 of the white walled clear bottom 96-well plate (Corning, #3903). Both cells were seeded at the density of 30,000 cells/well in 100 μl complete growth media and cultured 24 hrs in humidified incubator at 37° C. and 5% CO2. On the experiment day, the media of cells was replaced with serum/antibiotic free culture media. Then the cells were treated for 20 minutes with test molecules dissolved in induction medium (serum/antibiotic free culture media containing 4 μM forskolin, 500 μM IBMX (isobutyl-1-methylxanthine, Sigma-Aldrich, Cat. #17018) and 100 μM (RO 20-1724, Sigma-Aldrich, Cat. #68279)). Forskolin induced cAMP formation whereas IBMX and RO 20-1724 inhibited the degradation of cAMP. PKA was added to the lysate, mixed, and subsequently the substrate of the PKA was added. PKA was activated by cAMP, and the amount of ATP consumed due to PKA phosphorylation directly corresponded to cAMP levels in the lysate. Reduced ATP caused reduced conversion of luciferin to oxyluciferin, conferring diminished luminescence as the result of 5-HT1A activation. Conversely, enhanced luminescence was expected in cases where 5-HT1A receptor modulation—imparted by a test molecule—caused downstream increases in ATP, thus imparting enhanced conversion of luciferin to oxyluciferin.

[1] = tested on: CHO-K1/Gα15 (−5-HT1A) cells; test: cAMP-Glo assay with fixed forskolin in −5-HT1A control cells (CHO-K1/Gα15); assay type: cell-based; conditions: fixed (4 μM) forskolin
Source text: as §1
As 5-HT1A activation inhibits cAMP formation, the ability of test molecules to modulate the 5-HT1A receptor response was measured via changes in the levels of cAMP produced due to application of 4 μM forskolin. The change in intracellular cAMP levels due to the treatment of novel molecules was measured using cAMP-Glo Assay kit (Promega # V1501). […] Reduced ATP caused reduced conversion of luciferin to oxyluciferin, conferring diminished luminescence as the result of 5-HT1A activation. Conversely, enhanced luminescence was expected in cases where 5-HT1A receptor modulation—imparted by a test molecule—caused downstream increases in ATP, thus imparting enhanced conversion of luciferin to oxyluciferin.

5-HT2A receptor = biological target: T2, 5-HT2A receptor (Homo sapiens, UniProt P28223); test: [3H]ketanserin competition binding assay (SPA) at the 5-HT2A receptor; conditions: fixed (1 nM) [3H]ketanserin, membranes containing 5-HT2A
T2 construct: purchased PerkinElmer ES-313-M400UA
T2 sequence (P28223 whole entry): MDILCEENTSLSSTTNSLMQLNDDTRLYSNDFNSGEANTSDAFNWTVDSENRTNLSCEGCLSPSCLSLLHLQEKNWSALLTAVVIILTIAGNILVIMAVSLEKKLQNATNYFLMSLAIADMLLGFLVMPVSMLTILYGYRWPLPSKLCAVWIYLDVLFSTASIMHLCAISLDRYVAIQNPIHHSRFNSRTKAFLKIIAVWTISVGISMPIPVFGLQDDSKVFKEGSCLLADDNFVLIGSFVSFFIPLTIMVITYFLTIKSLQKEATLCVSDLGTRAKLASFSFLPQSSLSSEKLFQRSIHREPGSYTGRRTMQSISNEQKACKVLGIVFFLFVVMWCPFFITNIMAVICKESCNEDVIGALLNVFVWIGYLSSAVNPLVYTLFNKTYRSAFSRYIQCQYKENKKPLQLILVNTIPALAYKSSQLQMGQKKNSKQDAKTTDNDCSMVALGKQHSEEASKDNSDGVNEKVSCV
Source text: Evaluation of drug binding is an essential step to characterization of all drug-target interactions (Fang 2012, Exp Opin Drug Discov 7:969). The binding affinity of a drug to a target is traditionally viewed as an acceptable surrogate of its in vivo efficacy (Núñez et al., 2012, Drug Disc Today 17: 10). Competition assays, also called displacement or modulation binding assays, are a common approach to measure activity of a ligand at a target receptor (Flanagan 2016, Methods Cell Biol 132: 191). In these assays, standard radioligands acting either as agonists or antagonists are ascribed to specific receptors. […] After incubation, the samples were read on a MicroBeta 2 Microplate Counter (Perkin Elmer). […] Equilibrium binding constants for ketanserin (Kd) were determined from saturation binding curves using the ‘one-site saturation binding analysis’ method of GraphPad PRISM software (Version 9.2.0). […] Ki values were calculated from the competition displacement data using the competitive binding analysis from GraphPad PRISM software. […] Specific binding in counts per minute (cpm) was calculated by subtracting non-specific binding from total binding. Specific binding (pmol/mg) was calculated from pmol of [^3H]ketanserin bound per mg of protein in the assay. The Kd was calculated by fitting the data with the one-site binding model of PRISM software (version 9.2.0).

Row | SMILES | luminescence as dosages of ligand decrease (5-HT1A receptor) | 5-HT1A receptor modulation (conclusion from cAMP/luminescence trend) (5-HT1A receptor) | % cAMP levels as dosages of compound decrease (5-HT1A receptor) | trend of % cAMP levels with decreasing compound in −5HT1A cell cultures [1] | competition binding curve at the 5-HT2A receptor (5-HT2A receptor)
1 | CN(C)CCc1c[nH]c2ccccc12 [DMT] | reduced luminescence | 5-HT1A activity |  |  | 
2 | CCN(CC)CCc1c[nH]c2c(C=O)ccc(O)c12 [compound (VIII), N,N-diethyl-7-formyl psilocybin derivative] |  | 5-HT1A modulation activity | increased % cAMP levels | not observed | 
3 | COc1ccc(C=O)c2[nH]cc(CCN)c12 [compound (X), 4-O-methyl-7-formyl psilocybin derivative] |  | modulate 5-HT1A response | decreased % cAMP levels | not observed | 
4 | CCCCN(CCCC)CCc1c(C=O)[nH]c2cccc(OC)c12 [compound (XII)] |  | 5-HT1A modulation activity | decreased % cAMP levels | not observed | 
5 | CN(C)CCc1c[nH]c2cccc(O)c12 [psilocin] |  |  |  |  | binding
6 | NCCc1c[nH]c2ccc(O)cc12 [serotonin] |  | 5-HT1A binding activity | increased % cAMP levels | not observed | 
7 | N[C@@H](Cc1c[nH]c2ccccc12)C(=O)O [tryptophan] | no trend in luminescence | lack of 5-HT1A modulation |  |  | no binding
